The numbers were not newly measured in US20230357868A1 (priority 2021, published 2023), which cites them from elsewhere.

For series [1], the system named is potato spindle tuber viroid (PSTVd). The following applies: LAMP reaction.
The conditions of series [2]: LAMP visualization reagent.

For `O=S(=O)([O-])c1ccc2c(N=Nc3c(O)cc(S(=O)(=O)[O-])c4ccccc34)c(O)c(S(=O)(=O)[O-])cc2c1.[Na+].[Na+].[Na+]` [Hydroxynaphthol blue (HNB)], the Effect on amplification entry in series [1] is reported as “None”. The Toxicity entry in series [2] is on record as “May cause eye irritation”. In the case of `CCCN(CCCN(C)C)c1cc(/C=C2/Sc3ccccc3N2C)c2ccccc2[n+]1-c1ccccc1` [SYBR Green I], the Effect on amplification result in series [1] is on record as “Not inhibiting when used 0.5-1x”. The Toxicity entry in series [2] is on record as “Mutation enhancer”. Regarding `O=P([O-])([O-])OP(=O)([O-])[O-].[Mg+2].[Mg+2]` [Mg-pyrophosphate (Mg-PPi)], the Effect on amplification entry in series [1] is on record as “None”.
